The test system of series [1] is maximal electroshock seizures (MES). The series is described as follows: animal or person. It is filed as in vivo, male Carworth Farms number-1 mice. The conditions noted are these: Mus musculus, ip. The protocol:
(§1) Compounds were screened for anticonvulsant activity in male Carworth Farms number-1 mice. Test solutions of all compounds were prepared in 30% polyethylene glycol 400, and animals were dosed intraperitoneally at either 30 minutes or 4 hours prior to testing. Testing was conducted on four mice at each of three dose levels (30, 100, and 300 mg/kg).
(§2) Maximal electroshock seizures (MES) were elicited with a 60 cycle alternatiing current of 50-mA intensity (five to seven times that necessary to evoke minimal electroshock threshold seizures). Current was delivered via corneal electrodes for 0.2 s. A drop of 0.9% saline was instilled in the eye prior to application of electrodes. Abolition of the hindlimb tonic extension component of the seizure was defined as protection in the MES test.
(§3) Biological testing--Compounds were screened for anticonvulsant activity in male Carworth Farms number-one mice. Test solutions of all compounds were prepared in 30% polyethylene glycol 400, and animals were dosed intraperitoneally at either 30 min or 4 h prior to testing. Testing was conducted on four mice at each of three dose levels (30, 100, and 300 mg/kg).
(§4) Maximal electroshock seizures (MES) were elicited with a 60 cycle alternating current of 50-mA intensity (five to seven times that necessary to evoke minimal electroshock threshold seizures). Current was delivered via corneal electrodes for 0.2 s. A drop of 0.9% saline was instilled in the eye prior to application of electrodes. Abolition of the hindlimb tonic extension component of the seizure was defined as protection in the MES test.

Series [2] concerns pentylenetetrazole (Metrazol) induced seizures. The series is described as follows: Subcutaneous pentylenetetrazole (Metrazol) seizure threshold test (Met) in mice. The format is in vivo, male Carworth Farms number-1 mice. The conditions noted are these: Table 7, value in parentheses = maximum ineffective dose. The protocol: as §1
(§5) In the subcutaneous pentylenetetrazole (Metrazol) seizure threshold test(met), 85 mg/kg pentylenetetrazole was administered as a 0.5% solution in the posterior midline. Protection in this test was defined as a failure to observe a single episode of clonic spasms of at least 5 s duration during the 30 minute period following administration of the convulsive agent.
as §3
(§6) In the subcutaneous pentylenetetrazole (Metrazol) seizure threshold test (Met), 85 mg/kg pentylenetetrazole was administered as a 0.5% solution in the posterior midline. Protection in this test was defined as a failure to observe a single episode of clonic spasms of at least 5 s duration during the 30 min period following administration of the convulsive agent.

Series [3] is described as follows: Rotorod test for neurological deficit (TOX) in mice. It is filed as in vivo, male Carworth Farms number-1 mice. The conditions noted are these: mouse, in vivo, ip; Table 7, value in parentheses = maximum ineffective dose; read-out: (Maximum Ineffective) Intraperitoneal Dose, Rotorod. As for the experimental part: as §1
Animals were also tested for neurological deficit using the rotorod. After treatment, the animal was placed on a 1 inch diameter knurled plastic rod rotating at 6 rpm. Neurologic deficit was defined as the failure of the animal to remain on the rod for 1 minute.
as §3
Animals were also tested for neurological deficit using the rotorod. After treatment, the animal was placed on a 1 inch diameter knurled plastic rod rotating at 6 rpm. Neurologic deficit was defined as the failure of the animal to remain on the rod for 1 min.
On the technique in general: Falling from the rotarod earlier than controls is read as motor impairment.

Series [4] has as its target T1, strychnine-insensitive glycine binding site of the NMDA receptor (Rattus norvegicus, UniProt P35439).
T1 construct: Membranes were prepared from rat cerebral cortex; from tissue; host or cells: rat cerebral cortex, "buffy coat" membranes
The series is described as follows: Inhibition of [3H]glycine specific binding (strychnine-insensitive) in rat cerebral cortex membranes. The conditions noted are these: 10 uM compound. The protocol:
Binding Studies--Inhibition of [^3 H]glycine specific binding was assayed using [^3 H]glycine (43 Ci/mmol) obtained from DuPont-New England Nuclear. […] Membranes were prepared from rat cerebral cortex and assays were conducted in Na-free 50 mM HEPES (Sigma) at pH 7.4. Membranes were incubated in a final volume of 1 ml with 20 nM [^3 H]glycine and a 10 uM concentration of the test compound. Although experience has shown that [^3 H]glycine binding in this preparation is strychnine insensitive, 10 uM strychnine was added to the assay mixtures to eliminate the possibility that any effects studied could be mediated through a strychnine-sensitive process. Incubation was continued for 20 min at 4° C. Non-specific binding was determined in the presence of 1 mM glycine and subtracted. All conditions were tested in triplicate in 3 different assays. Binding was terminated using a Brandel M-24C cell harvester employing rapid filtration through GF/C glass fiber filters pre-soaked in 1% (V/V) polyethylenimine. Filters were washed twice with 5 ml buffer cooled to 4° C. Radioactivity bound to the filters was determined with a Beckman LS-500OTD liquid scintillation counter.

In series [5] the test system is seizures induced by electroshock and pentylenetetrazole. The series is described as follows: Anticonvulsant testing, overall (MES and Met). It is filed as in vivo, male Carworth Farms number-1 mice. The conditions noted are these: Mus musculus, ip, read-out: dose level with anticonvulsant activity (test not given). As for the experimental part: as §1, §2, §5, §3, §4, §6

Series [6] has as its system potentiating action of glycine on current elicited by NMDA. Particulars: whole cells (Huettner, 1989); cited from earlier work.
Series [7] has as its target T1, strychnine-insensitive glycine binding site of the NMDA receptor. Particulars: literature value of the standard; read-out: IC50 for glycine binding in this test system; cited from earlier work.
Series [8] deals with strychnine-insensitive glycine binding site. The conditions noted are these: see also Kemp et al., 1988; cited from earlier work.
In the next series the target is NMDA receptor. Particulars: see also Kemp et al., 1988; cited from earlier work.
The next series addresses quisqualate receptor. Particulars: see also Kemp et al., 1988; cited from earlier work.
A further series concerns the target kainate receptor. Particulars: see also Kemp et al., 1988; unit inferred; cited from earlier work.
Series [9] relates to NMDA-associated glycine site. The conditions noted are these: Xenopus oocytes injected with rat brain mRNA (Kleckner and Dingledine, 1989); cited from earlier work.
The next series has as its system anticonvulsant activity. The conditions noted are these: Wong et al., 1986; Singh et al., 1990; cited from earlier work.

We go through two compounds from patent US5493027A, “Anticonvulsive agents and uses thereof” (priority 1993, dated 1996).

Like-named read-outs stand apart in the source and are kept apart here.

In the case of `O=C(O)c1cc2cc(F)ccc2[nH]1` [5-F-indole-2-COOH, 5-fluoro-indole-2-carboxylic acid], the minimal effective dose in series [1] (read-out: Effective Intraperitoneal Dose, MES) was found to be 100 mg/kg; in [1] (read-out: dose active in MES test), 100 mg/kg; in series [5], 100 mg/kg. Also, the “(Maximum Ineffective) Intraperitoneal Dose, Met” value in series [2] amounted to 300 mg/kg. In addition, the NOAEL in series [3] worked out at 300 mg/kg. Besides, in [4], the “[3H]glycine binding inhibition” value was “most potent inhibitor of [^3 H]glycine binding in this group”. In addition, in [6], the “inhibition of potentiating action of glycine on NMDA current” value is recorded as “inhibit competitively the potentiating action of glycine”.
With `O=C(O)c1cc(O)c2ccc(Cl)cc2n1` [7-Cl-Kyn, 7-chloro-kynurenic acid], the IC50 in [7] was 0.27 to 0.56 µM; in series [8], 0.56 µM; on NMDA receptor, 169 µM; at quisqualate receptor, 153 µM; on kainate receptor, > 1000 µM. Also, the “more potent as antagonist at the NMDA-associated glycine site than at the receptor mediating kainate currents” value in series [9] is “approximately 40 fold”. The “anticonvulsant activity (words, literature)” value with anticonvulsant activity is recorded as “demonstrate anticonvulsant activity”.

For orientation: IC50 means the midpoint of a concentration-inhibition curve.
